Source: patent publication US11542273B2, “Amide compound having bet proteolysis-inducing action and medicinal application thereof” (MITSUBISHI TANABE PHARMA CORPORATION, priority 2018, dated 2023)

Columns and labels:
[1] = system: human prostate cancer LNCaP cells; assay: Cytotoxic action on cancer cells (WST-8, 96 hr); format: cell-based; settings: Homo sapiens, LNCaP, 96 h, read-out: LNCaP cytotoxic activity: IC50
Summary of the method: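 Seed cells in 10% FBS/RPMI1640 and culture overnight (37° C, 5% CO2). Add test compound (DMSO stock diluted in medium). Culture further, then read viable cell number by WST-8. Derive IC50 from the straight line between survival points enclosing 50%.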

[2] = molecular target: BRD4 protein (Homo sapiens (Human), UniProt O60885); assay: BRD4 protein degradation inducing action in cancer cells (immunofluorescence, Operetta); format: cell-based; settings: LNCaP cells, 6 hr treatment, fluorescence intensity
Summary of the method: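 LNCaP prostate cancer cells in 10% FBS/RPMI1640 were exposed to compound for 6 hr at 37° C, then fixed, permeabilized and immunostained for BRD4 with Alexa Fluor 488 or 546 secondary antibodies plus Hoechst nuclear stain. Fluorescence was read by high-content imaging; DC50 is the concentration giving 50% of untreated signal, interpolated linearly between bracketing points.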

Q: Which IC50 [1] does the source give for `COC(=O)C[C@@H]1N=C(c2ccc(-c3ccc(COCC(=O)N[C@H](C(=O)N4C[C@H](O)C[C@H]4C(=O)N[C@@H](C)c4ccc(-c5scnc5C)cc4)C(C)(C)C)cc3)cc2)c2c(sc(C)c2C)-n2c(C)nnc21` [Example 39, methyl [(6S)-4-(4′-{[2-({(2S)-1-[(2S,4R)-4-hydroxy-2-({(1S)-1-[4-(4-methyl-1,3-thiazol-5-yl)phenyl]ethyl}carbamoyl)pyrrolidin-1-yl]-3,3-dimethyl-1-oxobutan-2-yl}amino)-2-oxoethoxy]methyl}[1,1′-biphenyl]-4-yl)-2,3,9-trimethyl-6H-thieno[3,2-f][1,2,4]triazolo[4,3-a] [1,4]diazepin-6-yl]acetate] here?
A: The IC50 was 0.071 nM.

Q: And the DC50 [2]?
A: Its DC50 is 0.013 nM.

Q: How did the IC50 [1] turn out when `COC(=O)C[C@@H]1N=C(c2ccc(-c3ccc(OCC(=O)N[C@H](C(=O)N4C[C@H](O)C[C@H]4C(=O)N[C@@H](C)c4ccc(-c5scnc5C)cc4)C(C)(C)C)c(CO)c3)cc2)c2c(sc(C)c2C)-n2c(C)nnc21` [Example 154, methyl [(6S)-4-{3′-(hydroxymethyl)-4′-[2-({(2S)-1-[(2S,4R)-4-hydroxy-2-({(1S)-1-[4-(4-methyl-1,3-thiazol-5-yl)phenyl]ethyl}carbamoyl)pyrrolidin-1-yl]-3,3-dimethyl-1-oxobutan-2-yl}amino)-2-oxoethoxy][1,1′-biphenyl]-4-yl}-2,3,9-trimethyl-6H-thieno[3,2-f][1,2,4]triazolo[4,3-a][1,4]diazepin-6-yl]acetate] was run?
A: The IC50 was 0.45 nM.

Q: And the DC50 [2]?
A: Its DC50 is 0.42 nM.

Q: Which IC50 [1] does the source give for `Cc1ncsc1-c1ccc([C@H](C)NC(=O)[C@@H]2C[C@@H](O)CN2C(=O)[C@@H](NC(=O)COc2ccc(-c3ccc(C4=N[C@@H](C)c5nnc(C)n5-c5sc(C)c(C)c54)cc3)cc2C#N)C(C)(C)C)cc1` [Example 16, (2S,4R)-1-{(2S)-2-[2-({3-cyano-4′-[(6S)-2,3,6,9-tetramethyl-6H-thieno[3,2-f][1,2,4]triazolo[4,3-a] [1,4]diazepin-4-yl][1,1′-biphenyl]-4-yl}oxy)acetamido]-3,3-dimethylbutanoyl}-4-hydroxy-N-{(1S)-1-[4-(4-methyl-1,3-thiazol-5-yl)phenyl]ethyl}pyrrolidine-2-carboxamide] here?
A: Its IC50 is 0.29 nM.

Q: What about the DC50 [2] of the same compound?
A: The DC50 was 0.53 nM.

Q: Which IC50 [1] does the source give for `COC(=O)C[C@@H]1N=C(c2ccc(-c3ccc(C(=O)N[C@H](C(=O)N4C[C@H](O)C[C@H]4C(=O)N[C@@H](C)c4ccc(-c5scnc5C)cc4)C(C)(C)C)cc3)cc2)c2c(sc(CO)c2C)-n2c(C)nnc21` [Example 209, methyl {(6S)-2-(hydroxymethyl)-4-[4′-({(2S)-1-[(2S,4R)-4-hydroxy-2-({(1S)-1-[4-(4-methyl-1,3-thiazol-5-yl)phenyl]ethyl}carbamoyl)pyrrolidin-1-yl]-3,3-dimethyl-1-oxobutan-2-yl}carbamoyl)[1,1′-biphenyl]-4-yl]-3,9-dimethyl-6H-thieno[3,2-f][1,2,4]triazolo[4,3-a][1,4]diazepin-6-yl}acetate] here?
A: Its IC50 is 0.24 nM.

Q: What about the DC50 [2] of the same compound?
A: The DC50 was 0.32 nM.

Q: `COC(=O)C[C@@H]1N=C(c2ccc(-c3ccccc3OCC(=O)N[C@H](C(=O)N3C[C@H](O)C[C@H]3C(=O)N[C@@H](C)c3ccc(-c4scnc4C)cc3)C(C)(C)C)cc2)c2c(sc(C)c2C)-n2c(C)nnc21` [Example 178, methyl [(6S)-4-{2′-[2-({(2S)-1-[(2S,4R)-4-hydroxy-2-({(1S)-1-[4-(4-methyl-1,3-thiazol-5-yl)phenyl]ethyl}carbamoyl)pyrrolidin-1-yl]-3,3-dimethyl-1-oxobutan-2-yl}amino)-2-oxoethoxy][1,1′-biphenyl]-4-yl}-2,3,9-trimethyl-6H-thieno[3,2-f][1,2,4]triazolo[4,3-a][1,4]diazepin-6-yl]acetate] was tested. Which IC50 [1] did it give?
A: Its IC50 is 0.68 nM.

Q: What about the DC50 [2] of the same compound?
A: The DC50 was 0.8 nM.

Q: What does the source list for `COC(=O)C[C@@H]1N=C(c2ccc(-c3ccc(OCC(=O)N[C@H](C(=O)N4C[C@H](O)C[C@H]4C(=O)N[C@@H](C)c4ccc(-c5scnc5C)cc4)C(C)(C)C)c(C(F)(F)F)c3)cc2)c2c(sc(C)c2C)-n2c(C)nnc21` [Example Compound 100, methyl [(6S)-4-{4′-[2-({(2S)-1-[(2S,4R)-4-hydroxy-2-({(1S)-1-[4-(4-methyl-1,3-thiazol-5-yl)phenyl]ethyl}carbamoyl)pyrrolidin-1-yl]-3,3-dimethyl-1-oxobutan-2-yl}amino)-2-oxoethoxy]-3′-(trifluoromethyl)[1,1′-biphenyl]-4-yl}-2,3,9-trimethyl-6H-thieno[3,2-f] [1,2,4]triazolo[4,3-a][1,4]diazepin-6-yl]acetate]?
A: IC50 [1]: 0.67 nM; DC50 [2]: 0.21 nM

Q: `COC(=O)C[C@@H]1N=C(c2ccc(N3CC[C@@H](OCC(=O)N[C@H](C(=O)N4C[C@H](O)C[C@H]4C(=O)N[C@@H](C)c4ccc(-c5scnc5C)cc4)C(C)(C)C)C3)cc2)c2c(sc(C)c2C)-n2c(C)nnc21` [Example Compound 69, methyl [(6S)-4-(4-{(3R)-3-[2-({(2S)-1-[(2S,4R)-4-hydroxy-2-({(1S)-1-[4-(4-methyl-1,3-thiazol-5-yl)phenyl]ethyl}carbamoyl)pyrrolidin-1-yl]-3,3-dimethyl-1-oxobutan-2-yl}amino)-2-oxoethoxy]pyrrolidin-1-yl}phenyl)-2,3,9-trimethyl-6H-thieno[3,2-f][1,2,4]triazolo[4,3-a][1,4]diazepin-6-yl]acetate] was tested. Which IC50 [1] did it give?
A: The IC50 was 0.33 nM.

Q: What about the DC50 [2] of the same compound?
A: The DC50 was 0.15 nM.

Q: What does the source list for `COC(=O)C[C@@H]1N=C(c2ccc(-c3ccc(CCC(=O)N[C@H](C(=O)N4C[C@H](O)C[C@H]4C(=O)N[C@@H](C)c4ccc(-c5scnc5C)cc4)C(C)(C)C)cc3)cc2)c2c(sc(C)c2C)-n2c(C)nnc21` [Example 28, methyl [(6S)-4-{4′-[3-({(2S)-1-[(2S,4R)-4-hydroxy-2-({(1S)-1-[4-(4-methyl-1,3-thiazol-5-yl)phenyl]ethyl}carbamoyl)pyrrolidin-1-yl]-3,3-dimethyl-1-oxobutan-2-yl}amino)-3-oxopropyl][1,1′-biphenyl]-4-yl}-2,3,9-trimethyl-6H-thieno[3,2-f][1,2,4]triazolo[4,3-a][1,4]diazepin-6-yl]acetate]?
A: IC50 [1]: 0.044 nM; DC50 [2]: 0.023 nM

Q: Which IC50 [1] does the source give for `COC(=O)C[C@@H]1N=C(c2ccc(-c3ccc(O[C@H]4C[C@H](C(=O)N[C@H](C(=O)N5C[C@H](O)C[C@H]5C(=O)N[C@@H](C)c5ccc(-c6scnc6C)cc5)C(C)(C)C)C4)nc3)cc2)c2c(sc(C)c2C)-n2c(C)nnc21` [Example 165, methyl {(6S)-4-[4-(6-{[trans-3-({(2S)-1-[(2S,4R)-4-hydroxy-2-({(1S)-1-[4-(4-methyl-1,3-thiazol-5-yl)phenyl]ethyl}carbamoyl)pyrrolidin-1-yl]-3,3-dimethyl-1-oxobutan-2-yl}carbamoyl)cyclobutyl]oxy}pyridin-3-yl)phenyl]-2,3,9-trimethyl-6H-thieno[3,2-f][1,2,4]triazolo[4,3-a] [1,4]diazepin-6-yl}acetate] here?
A: Its IC50 is 0.26 nM.

Q: And the DC50 [2]?
A: Its DC50 is 0.041 nM.

Q: How did the IC50 [1] turn out when `COC(=O)C[C@@H]1N=C(c2ccc(-c3ccc(CCC(=O)N[C@H](C(=O)N4C[C@H](O)C[C@H]4C(=O)N[C@@H](C)c4ccc(-c5scnc5C)cc4)C(C)(C)C)s3)cc2)c2c(sc(C)c2C)-n2c(C)nnc21` [Example 188, methyl [(6S)-4-(4-{5-[3-({(2S)-1-[(2S,4R)-4-hydroxy-2-({(1S)-1-[4-(4-methyl-1,3-thiazol-5-yl)phenyl]ethyl}carbamoyl)pyrrolidin-1-yl]-3,3-dimethyl-1-oxobutan-2-yl}amino)-3-oxopropyl]thiophen-2-yl}phenyl)-2,3,9-trimethyl-6H-thieno[3,2-f][1,2,4]triazolo[4,3-a][1,4]diazepin-6-yl]acetate] was run?
A: The IC50 was 0.042 nM.

Q: What about the DC50 [2] of the same compound?
A: Its DC50 is 0.26 nM.

Q: Which IC50 [1] does the source give for `COC(=O)C[C@@H]1N=C(c2ccc(-c3c(F)ccc(C(=O)N[C@H](C(=O)N4C[C@H](O)C[C@H]4C(=O)N[C@@H](C)c4ccc(-c5scnc5C)cc4)C(C)(C)C)c3F)cc2)c2c(sc(C)c2C)-n2c(C)nnc21` [Example 174, methyl {(6S)-4-[2′,6′-difluoro-3′-({(2S)-1-[(2S,4R)-4-hydroxy-2-({(1S)-1-[4-(4-methyl-1,3-thiazol-5-yl)phenyl]ethyl}carbamoyl)pyrrolidin-1-yl]-3,3-dimethyl-1-oxobutan-2-yl}carbamoyl)[1,1′-biphenyl]-4-yl]-2,3,9-trimethyl-6H-thieno[3,2-f][1,2,4]triazolo[4,3-a][1,4]diazepin-6-yl}acetate] here?
A: The IC50 was 0.37 nM.

Q: And the DC50 [2]?
A: Its DC50 is 0.31 nM.

Q: What does the source list for `Cc1ncsc1-c1ccc([C@H](C)NC(=O)[C@@H]2C[C@@H](O)CN2C(=O)[C@@H](NC(=O)c2ccc(-c3ccc(C4=N[C@@H](C)c5nnc(C)n5-c5sc6c(c54)CCC6)cc3)cc2)C(C)(C)C)cc1` [Example 200, (2S,4R)-1-[(2S)-2-({4′-[(45)-1,4-dimethyl-8,9-dihydro-4H,7H-cyclopenta[4,5]thieno[3,2-f][1,2,4]triazolo[4,3-a] [1,4]diazepin-6-yl][1,1′-biphenyl]-4-carbonyl}amino)-3,3-dimethylbutanoyl]-4-hydroxy-N-{(1S)-1-[4-(4-methyl-1,3-thiazol-5-yl)phenyl]ethyl}pyrrolidine-2-carboxamide]?
A: IC50 [1]: 0.38 nM; DC50 [2]: 0.66 nM

Q: How did the IC50 [1] turn out when `COC(=O)C[C@@H]1N=C(c2ccc(-c3cc(C(=O)N[C@H](C(=O)N4C[C@H](O)C[C@H]4C(=O)N[C@@H](C)c4ccc(-c5scnc5C)cc4)C(C)(C)C)ccc3F)cc2)c2c(sc(C)c2C)-n2c(C)nnc21` [Example 106, methyl {(6S)-4-[2′-fluoro-5′-({(2S)-1-[(2S,4R)-4-hydroxy-2-({(1S)-1-[4-(4-methyl-1,3-thiazol-5-yl)phenyl]ethyl}carbamoyl)pyrrolidin-1-yl]-3,3-dimethyl-1-oxobutan-2-yl}carbamoyl)[1,1′-biphenyl]-4-yl]-2,3,9-trimethyl-6H-thieno[3,2-f][1,2,4]triazolo[4,3-a][1,4]diazepin-6-yl}acetate] was run?
A: The IC50 was 0.58 nM.

Q: And the DC50 [2]?
A: Its DC50 is 0.6 nM.
